Where a name gives a salt, the structure may show the parent alone. Where only a bound is given, the exact number is not on record here.

This assay has as its system hair cells. Put plainly: Hair cell toxicity assay in zebrafish (neomycin-induced hair cell death, DASPEI staining of neuromasts). The assay is classed as in vivo. Particulars: Danio rerio; for Emax at 25 µM: maximum observed @ 25 μM test compound; for Emax at 25 µM / Emax at 2.8 µM / Emax at 8.3 µM: 200 micromolar neomycin, read-out: Max HC Protection (HCmax, % hair cell survival); for EC50: zebrafish larvae 5-7 dpf, 1 h pre-treatment, then 200 micromolar neomycin + test compound 30 min, read-out: HC50 (concentration that would produce 50% hair cell survival); for Emax at 2.8 µM: maximum observed @ 2.8 μM test compound; for Emax at 8.3 µM: maximum observed @ 8.3 μM test compound. The essentials: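 Zebrafish larvae 5-7 dpf pre-treated 1 h with compound (0.010-25 μM), then 30 min with 200 μM neomycin plus compound. DASPEI stained 10 neuromasts per fish, scored 0-2 (total 0-20), normalised to vehicle controls as % hair cell survival. HC50 linearly interpolated if survival reached ≥50%; HCmax is maximum survival.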

Consider `CC(C)CN1CCc2c(sc(NC(=O)Nc3ccc4ccccc4c3)c2C(N)=O)C1` [Example 34, 6-Isobutyl-2-[3-(naphthalen-2-yl)ureido]-4,5,6,7-tetrahydrothieno[2,3-c]pyridine-3-carboxamide hydrochloride], for which the Emax at 25 µM turned out to be 87% and the EC50 fell in the range of 1 to 10 µM. As to `NC(=O)c1c(NC(=O)Nc2ccc3ccccc3c2)sc2c1CCN(CC1CCC1)C2` [Example 35, 6-(Cyclobutylmethyl)-2-[3-(naphthalen-2-yl)ureido]-4,5,6,7-tetrahydrothieno[2,3-c]pyridine-3-carboxamide hydrochloride], the Emax at 2.8 µM worked out at 42%.

Consider `CC(C)(C)CN1CCc2c(sc(NC(=O)Nc3ccc4ccccc4c3)c2C(N)=O)C1` [Example 36, 2-[3-(Naphthalen-2-yl)ureido]-6-neopentyl-4,5,6,7-tetrahydrothieno[2,3-c]pyridine-3-carboxamide hydrochloride], for which the Emax at 8.3 µM amounted to 13%. For `NC(=O)c1c(NC(=O)Nc2ccc3ccccc3c2)sc2c1CCN(CCCCO)C2` [Example 37, 6-(4-Hydroxybutyl)-2-[3-(naphthalen-2-yl)ureido]-4,5,6,7-tetrahydrothieno[2,3-c]pyridine-3-carboxamide hydrochloride], the Emax at 25 µM turned out to be 105% and the EC50 was 1 to 10 µM. Turning to `COC(=O)C(C)(C)CN1CCc2c(sc(NC(=O)Nc3ccc(Cl)cc3)c2C(N)=O)C1` [Example 38, Methyl 3-{3-carbamoyl-2-[3-(4-chlorophenyl)ureido]-4,5-dihydrothieno[2,3-c]pyridin-6(7H)-yl}-2,2-dimethylpropanoate hydrochloride], the Emax at 2.8 µM was 14%. As to `CC(C)CN1CCc2c(sc(NC(=O)Nc3ccc(Cl)c4ccccc34)c2C(N)=O)C1` [Example 39, 2-[3-(4-Chloronaphthalen-1-yl)ureido]-6-isobutyl-4,5,6,7-tetrahydrothieno[2,3-c]pyridine-3-carboxamide hydrochloride], the Emax at 25 µM is 56% and the EC50 is over 10 µM. With `NC(=O)c1c(NC(=O)Nc2ccc(Cl)c3ccccc23)sc2c1CCN(CC1CCC1)C2` [Example 40, 2-[3-(4-Chloronaphthalen-1-yl)ureido]-6-(cyclobutylmethyl)-4,5,6,7-tetrahydrothieno[2,3-c]pyridine-3-carboxamide hydrochloride], the Emax at 8.3 µM was 62% and the EC50 was 1 to 10 µM. As to `CC(C)(C)CN1CCc2c(sc(NC(=O)Nc3ccc(Cl)c4ccccc34)c2C(N)=O)C1` [Example 41, 2-[3-(4-Chloronaphthalen-1-yl)ureido]-6-neopentyl-4,5,6,7-tetrahydrothieno[2,3-c]pyridine-3-carboxamide hydrochloride], the Emax at 8.3 µM came to 39%.

Consider `CN(C)C1CCc2c(sc(NC(=O)Nc3ccc(Cl)cc3)c2C(N)=O)C1` (centres unmarked) [Example 42, 2-[3-(4-Chlorophenyl)ureido]-6-(dimethylamino)-4,5,6,7-tetrahydrobenzo[b]thiophene-3-carboxamide hydrochloride], for which the Emax at 25 µM was determined as 90% and the EC50 lay within 1 to 10 µM.

Regarding `NC(=O)c1c(NC(=O)Nc2ccc(Cl)cc2)sc2c1CCC(N1CCC1)C2` (centres unmarked) [Example 43, 6-(Azetidin-1-yl)-2-[3-(4-chlorophenyl)ureido]-4,5,6,7-tetrahydrobenzo[b]thiophene-3-carboxamide hydrochloride], the Emax at 25 µM turned out to be 93% and the EC50 lay within 1 to 10 µM. Take `NC(=O)c1c(NC(=O)Nc2ccc(Cl)cc2)sc2c1CCN(CCN1CCCCC1)C2` [Example 44, 2-[3-(4-chlorophenyl)ureido]-6-[2-(piperidin-1-yl)ethyl]-4,5,6,7-tetrahydrothieno[2,3-c]pyridine-3-carboxamide ditrifluoroacetate]: the Emax at 25 µM worked out at 98% and the EC50 lay in the range of 1 to 10 µM. With `CN1CCN(CCN2CCc3c(sc(NC(=O)Nc4ccc(Cl)cc4)c3C(N)=O)C2)CC1` [Example 45, 2-[3-(4-Chlorophenyl)ureido]-6-[2-(4-methylpiperazin-1-yl)ethyl]-4,5,6,7-tetrahydrothieno[2,3-c]pyridine-3-carboxamide hydrochloride], the Emax at 25 µM came out at 78% and the EC50 was in the range of 1 to 10 µM. On the same counts, the results for `NC(=O)c1c(NC(=O)Nc2ccc(Cl)cc2)sc2c1CCN(CCN1CCOCC1)C2` [Example 46, 2-[3-(4-Chlorophenyl)ureido]-6-(2-morpholinoethyl)-4,5,6,7-tetrahydrothieno[2,3-c]pyridine-3-carboxamide trifluoroacetate] are 79% and over 10 µM. In the case of `NC(=O)c1c(NC(=O)Nc2ccc(Cl)cc2)sc2c1CCN(CC13CC4CC(CC(C4)C1)C3)C2` [Example 49, 6-[(3r,5r,7r)-Adamantan-1-ylmethyl]-2-[3-(4-chlorophenyl)ureido]-4,5,6,7-tetrahydrothieno[2,3-c]pyridine-3-carboxamide hydrochloride], the Emax at 2.8 µM came out at 64% and the EC50 was in the range of 1 to 10 µM. For `NC(=O)CCN1CCc2c(sc(NC(=O)Nc3ccc(Cl)cc3)c2C(N)=O)C1` [Example 50, 6-(3-amino-3-oxopropyl)-2-[3-(4-chlorophenyl)ureido]-4,5,6,7-tetrahydrothieno[2,3-c]pyridine-3-carboxamide hydrochloride], the Emax at 25 µM amounted to 82% and the EC50 fell in the range of 1 to 10 µM. In the case of `CC(C)(C)OC(=O)CCN1CCc2c(sc(NC(=O)Nc3ccc(Cl)cc3)c2C(N)=O)C1` [Example 51, tert-Butyl 3-{3-Carbamoyl-2-[3-(4-chlorophenyl)ureido]-4,5-dihydrothieno[2,3-c]pyridin-6(7H)-yl}propanoate], the Emax at 8.3 µM came to 55% and the EC50 lay in the range of 1 to 10 µM. On to `NC(=O)c1c(NC(=O)Nc2ccc(Cl)cc2)sc2c1CCN(CCC(=O)O)C2` [Example 52, 3-{3-Carbamoyl-2-[3-(4-chlorophenyl)ureido]-4,5-dihydrothieno[2,3-c]pyridin-6(7H)-yl}propanoic acid trifluoroacetate], for which the Emax at 25 µM was 33%. For `CN(C)C(=O)CCN1CCc2c(sc(NC(=O)Nc3ccc(Cl)cc3)c2C(N)=O)C1` [Example 53, 2-[3-(4-Chlorophenyl)ureido]-6-[3-(dimethylamino)-3-oxopropyl]-4,5,6,7-tetrahydrothieno[2,3-c]pyridine-3-carboxamide hydrochloride], the Emax at 25 µM was found to be 103% and the EC50 lay in the range of 1 to 10 µM.

Regarding `CC(C)OC(=O)CCN1CCc2c(sc(NC(=O)Nc3ccc(Cl)cc3)c2C(N)=O)C1` [Example 54, Isopropyl 3-{3-carbamoyl-2-[3-(4-chlorophenyl)ureido]-4,5-dihydrothieno[2,3-c]pyridin-6(7H)-yl}propanoate hydrochloride], the Emax at 25 µM was found to be 58% and the EC50 is 1 to 10 µM. `COC(=O)CCN1CCc2c(sc(NC(=O)Nc3ccc(Cl)cc3)c2C(N)=O)C1` [Example 55, Methyl 3-{3-carbamoyl-2-[3-(4-chlorophenyl)ureido]-4,5-dihydrothieno[2,3-c]pyridin-6(7H)-yl}propanoate]: the Emax at 2.8 µM was 17%. With `CCOC(=O)CCN1CCc2c(sc(NC(=O)Nc3ccc(Cl)cc3)c2C(N)=O)C1` [Example 56, Ethyl 3-{3-carbamoyl-2-[3-(4-chlorophenyl)ureido]-4,5-dihydrothieno[2,3-c]pyridin-6(7H)-yl}propanoate hydrochloride], the Emax at 2.8 µM stood at 48%.

Values taken from patent US9416141B2 (University of Washington through its Center for …, priority 2012, dated 2016).
